From US10231985B2, “Compounds and compositions comprising such compounds for the prevention or treatment of dyslipidaemias” (CENTRE NATIONAL DE LA RECHERCHE SCIENTIFIQUE, priority 2013, dated 2019)

What was measured:
Assay type in all cases: cell-based, Saccharomyces cerevisiae
[1] = tested on: hem1Δ yeasts grown under SFA accumulation conditions; experiment: Restoration of growth of lipointoxicated hem1Δ yeast; conditions: after 3 days, increasing concentrations
Procedure: The strain bearing the hem1Δ mutation is grown, under aerobic conditions, with shaking and at 28° C., in liquid YPG^A medium (YPG (1% yeast extract (w/v), 1% peptone (w/v) and 2% glucose (w/v)) supplemented with 80 μg/ml 6-aminolevulinic acid (ALA)). Lipointoxication by saturated fatty acids (SFA) is caused by depletion of unsaturated fatty acids (UFA), the synthesis of which is dependent on the presence of heme (the prosthetic group of the Ole1p enzyme in particular), by transfer to YPG^+ medium (YPG supplemented with 80 μg/ml ergosterol to compensate for the sterol depletion obtained under this condition). Lipointoxication can be induced on solid YPG^+ medium+2% agar (w/v) by transferring 3500 cells (hem1Δ from preculture in YPG^A) per cm^2 or, alternatively, in liquid medium by inoculating 2×10^6 cells/ml YPG^+. Classically, the effects of SFA lipointoxication are analyzed 7 hours after the transfer to YPG^+ medium. The ability of a compound to counter the deleterious effects of SFA lipointoxication, in turn, is evaluated successively to the addition of this compound on (or in) the YPG^+ transfer medium, after seeding with the cells.
Following the induction of SFA lipointoxication (for hem1Δ grown on solid medium) 5 μl drops of solutions of the various compounds at 10 mM in dimethylsulfoxide (DMSO) or ethanol (EtOH) are deposited on the surface of the agar. The ability of a compound to counter the arrest of lipid-induced cell growth is estimated by the appearance of a halo of hem1Δ colonies at the site of the deposition of said compound after 3 days of culture at 28° C. (see Deguil et al., 2011).
Jointly with the induction of SFA lipointoxication (for hem1Δ in liquid medium), the various compounds are added to the cultures at an initial concentration of 200 μM. Proliferation is monitored by spectrometric measurement of cell density, at regular time intervals (every hour over the duration of the observation). At a wavelength of 600 nm, one optical density unit (OD600 nm) corresponds to 2×10^7 cells/ml.

[2] = tested on: phospholipids of the cellular membranes (hem1Δ strain); experiment: Fatty acid content of cellular phospholipids (lipid extraction, ESI-MS)
Procedure: The hem1Δ strain is grown in liquid medium (YPG^A, YPG^+, or YPG^++200 μM compound to be tested) under aerobic conditions, with shaking and at 28° C. for 7 hours, from an initial cell concentration of 2×10^6 cells/ml. At the conclusion of the culture, 10^8 cells are collected in order to carry out a total lipid extraction. After having suspended the cells in 1 ml of distilled water at 4° C., 500 μl of glass beads (Ø 0.6 mm) are added and the whole then undergoes 3 sequences of 20 seconds at 5000 rpm in a shaker (the tubes are kept on ice between each of the 3 sequences). The cell lysate then obtained, supplemented with bead-washing solution (1 ml), is then transferred to a 40 ml glass tube (Corex™) before carrying out the lipid extraction using a 2:1 (v/v) methanol:chloroform ratio. First, 6 ml of methanol is added and the whole is vortexed for 30 seconds and then incubated for 15 minutes at 65° C. Once the mixture cools to room temperature, 3 ml of chloroform is added and then the whole is vortexed again for 30 seconds before allowing the extraction to proceed for 16 hours. Later, the sample is centrifuged for 12 minutes at 10000 g before transferring the supernatant to a new Corex™ tube. After adding 2 ml of chloroform and then 4 ml of distilled water, the whole is vortexed for 30 seconds and then centrifuged for 8 minutes at 3000 g. After removing the resulting upper phase, the lower organic phase is collected in a glass hemolysis tube. Finally, the solvent is evaporated under a stream of nitrogen at 80° C. in order to obtain the total cellular lipid samples.
The total cellular lipid samples are resuspended in 1 ml of dichloromethane while being vortexed for 30 seconds. The whole is deposited on a silica column (BOND ELUT-SI, 100 mg 1 ml) preconditioned successively with 3 ml of methanol and then 2 ml of dichloromethane. The fraction retained by the column is then washed successively with 2 ml of dichloromethane and then 3 ml of acetone. Finally, 2 ml of a 50:45:5 (v/v/v) chloroform/methanol/water mixture is deposited on the column and the phospholipids thus eluted are collected in a glass hemolysis tube. The solvent is evaporated under nitrogen at 80° C. in order to obtain the cellular phospholipid samples.
Once resuspended in 100 μl of the mixture Mix^− (2:1:1 (v/v/v) isopropanol/acetonitrile/water+1% (v/v) triethylamine) or the mixture Mix^+ (2:1:1 (v/v/v) isopropanol/acetonitrile/water+1% (v/v) formic acid), the samples are analyzed by electrospray ionization mass spectrometry (ESI-MS) in negative or positive mode, respectively, and the results obtained are used to analyze the fatty acid content of the various phospholipid species.

[3] = tested on: QM strain (cells not synthesizing triglycerides); experiment: Toxicity test on QM strain (growth inhibition halos); conditions: 5 μl drops on agar, after three days
Procedure: Drops (5 μl) of OAG, LPA or oleic acid were deposited, from stock solutions at the indicated concentrations, on the surface of an agar medium over which the QM strain had been spread beforehand. […] These halos are, however, not observed in the presence of LPA or of OAG.
In parallel, wild-type (WT) and quadruple mutant (QM) strains are grown, under aerobic conditions, with shaking and at 28° C., in liquid YPG medium before seeding 3500 cells per cm^2 of YPG+2% agar (w/v). Following this transfer to solid medium, 1 μl drops of 1, 10 and 100 mM solutions of the various compounds in DMSO or EtOH are deposited on the agar surface. Separately, DMSO and EtOH are also deposited in order to evaluate the intrinsic toxicity of these two solvents. After 3 days of culture at 28° C., the toxicity of the compounds tested is evaluated by comparing the growth inhibition halo diameters obtained for the depositions of pure solvent with those of the depositions of the various concentrations of the compounds tested. Unlike the WT strain, the QM strain is incapable of buffering excess exogenous oleic acid in the form of neutral lipids (triglycerides (TG) or esterified sterols (ES)) in lipid droplets.

Structure (SMILES)	Restoration of the growth of hem1Δ yeasts [1]	Effect on fatty acid composition of membrane phospholipids [2]	Growth inhibition halos on QM strain [3]
CCCCCCCC/C=C\CCCCCCCC(=O)OC[C@@H](O)COP(=O)(O)O [LPA, 1-oleoyl-sn-glycerol-3-phosphate]	restore the growth	act directly on lipid content	not observed
CCCCCCCC/C=C\CCCCCCCC(=O)OC[C@H](CO)OC(C)=O [OAG, 1-oleoyl-2-acetyl-sn-glycerol]	restore the growth	without restoring a normal diunsaturated phospholipid composition	not observed
